# Data: patent US10953100B2, “Compounds and therapeutic uses thereof” (priority 2015, dated 2021)
# Molecular target: Anti-alpha galactosyl IgG antibody
# Assay: ELISA assay: streptavidin-captured biotin compound, binding of anti-alpha galactosyl IgG antibody
# Set-up: species or system human
# Conditions: geometric mean with standard error in brackets; streptavidin plate, anti-alpha galactosyl IgG 0.5 μg/mL; read-out: Concentration at half maximal binding
# Description: Compounds containing F (representing a carbohydrate molecule capable of binding to a human anti-alpha-galactosyl antibody) and L (as biotin) were assayed for binding at both ends of the compound using an enzyme-linked immunosorbent assay (ELISA). Streptavidin-coated plates captured biotin to the surface of the plate and the binding of anti-alpha galactosyl antibodies to the alpha-galactosyl moiety was reported by a secondary antibody labelled with HRP (Horse Radish Peroxidase).
# Compounds were titrated 1.5 fold from a top dose of 50 nM in phosphate buffered saline (PBS) (Sigma D8537)+0.025% DMSO (Dimethyl Sulphoxide, Sigma D8418). Streptavidin immobilizer 96-well plates (nunc 436014) were coated with 100 μL of compound at room temperature for 2 hours shaking at 500 rpm. Plates were washed with 2×200 μL PBS-T (PBS with 0.05% Tween 20 (Sigma P9416)) and 1×200 μL PBS-T with a 5 minute incubation shaking at room temperature, prior to being blocked for 1 hour at room temperature with 1% Bovine Serum Albumin (BSA, Sigma A2153) in PBS-T. After removing the blocking buffer, 50 μL of Anti-alpha galactosyl IgG antibody (Anti-alpha-galactosyl antibody was purified from human IVIG (Gammagard) by affinity purification using an alpha-galactosyl-HSA (Human Serum Albumin) sepharose column by Rockland Immunochemicals Inc.) at 0.5 μg/mL in PBS-T+1% BSA and incubated shaking at room temperature for 1 hour.
# Plates were washed 2×200 μL PBS-T and 3×200 μL PBS-T with a 5 minute incubation, shaking at room temperature before the addition of 50 μL 1:5000 Goat Anti-Human IgG-HRP (horseradish peroxidase) conjugate (Abcam ab97175). The plates were incubated shaking at room temperature for 1 hour before a final wash of 2×200 μL PBS-T and 3×200 μl PBS-T with a 5 minute incubation shaking at room temperature. 100 μL TMB buffer (3,3′,5,5′-tetramethylbenzidine, a chromogenic substrate for horseradish peroxidase) (Pierce 34021) was added to the plate and allowed to develop for 5-10 minutes before the samples were quenched with 50 μL 2M sulfuric acid (Sigma 258105). The absorbance was read at 450 nm on an Envision plate reader (Perkin Elmer). Results from wells (duplicate) were averaged and the 50% binding affinity calculated.
# The concentration at which half-maximal binding is achieved is reported as a geometric mean with standard error in brackets. The number of independent experiments is also reported. In order to achieve a signal both ends of the molecule are required to bind (biotin to streptavidin and alpha-galactosyl to anti-alpha galactosyl antibodies) simultaneously.
row,SMILES,EC50 [nM]
1,CC(=O)NC1C(OCCCNC(=O)CCOCCOCCOCCOCCNC(=O)COc2cc(OCC(=O)NCCOCCOCCOCCOCCC(=O)NCCCOC3OC(CO)C(OC4OC(CO)C(O)C(OC5OC(CO)C(O)C(O)C5O)C4O)C(O)C3NC(C)=O)cc(C(=O)NCCNC(=O)CCOCCOCCOCCOCCOCCOCCOCCOCCOCCOCCOCCOCCNC(=O)CCCCC3SCC4NC(=O)NC43)c2)OC(CO)C(OC2OC(CO)C(O)C(OC3OC(CO)C(O)C(O)C3O)C2O)C1O (stereo not drawn) [Example 21],14.8
2,CC(=O)NC1C(OCCCNC(=O)COc2cccc(C(=O)NCCNC(=O)CCOCCOCCOCCOCCOCCOCCOCCOCCOCCOCCOCCOCCNC(=O)CCCCC3SCC4NC(=O)NC43)c2)OC(CO)C(OC2OC(CO)C(O)C(OC3OC(CO)C(O)C(O)C3O)C2O)C1O (stereo not drawn) [Example 3],15
3,CC(=O)N[C@H]1[C@H](OCCCNC(=O)COc2ccc(-c3cc(OCC(=O)NCCCO[C@@H]4O[C@H](CO)[C@@H](O[C@@H]5O[C@H](CO)[C@H](O)[C@H](O[C@H]6O[C@H](CO)[C@H](O)[C@H](O)[C@H]6O)[C@H]5O)[C@H](O)[C@H]4NC(C)=O)cc(C(=O)NCCNC(=O)CCCC[C@@H]4SC[C@@H]5NC(=O)N[C@@H]54)c3)cc2)O[C@H](CO)[C@@H](O[C@@H]2O[C@H](CO)[C@H](O)[C@H](O[C@H]3O[C@H](CO)[C@H](O)[C@H](O)[C@H]3O)[C@H]2O)[C@@H]1O [Example 7],16
4,CC(=O)NC1C(OCCCNC(=O)CCCNC(=O)CCOCCOCCOCCOCCNC(=O)COc2cc(OCC(=O)NCCOCCOCCOCCOCCC(=O)NCCCC(=O)NCCCOC3OC(CO)C(OC4OC(CO)C(O)C(OC5OC(CO)C(O)C(O)C5O)C4O)C(O)C3NC(C)=O)cc(-c3cc(OCC(=O)NCCOCCOCCOCCOCCC(=O)NCCCC(=O)NCCCOC4OC(CO)C(OC5OC(CO)C(O)C(OC6OC(CO)C(O)C(O)C6O)C5O)C(O)C4NC(C)=O)cc(C(=O)NCCNC(=O)CCCCC4SCC5NC(=O)NC54)c3)c2)OC(CO)C(OC2OC(CO)C(O)C(OC3OC(CO)C(O)C(O)C3O)C2O)C1O (stereo not drawn) [Example 59],21.3
5,CC(=O)NC1C(OCCCNC(=O)CCOCCOCCOCCOCCNC(=O)COc2cc(OCC(=O)NCCOCCOCCOCCOCCC(=O)NCCCOC3OC(CO)C(OC4OC(CO)C(O)C(OC5OC(CO)C(O)C(O)C5O)C4O)C(O)C3NC(C)=O)cc(-c3cc(OCC(=O)NCCOCCOCCOCCOCCC(=O)NCCCOC4OC(CO)C(OC5OC(CO)C(O)C(OC6OC(CO)C(O)C(O)C6O)C5O)C(O)C4NC(C)=O)cc(C(=O)NCCNC(=O)CCCCC4SCC5NC(=O)NC54)c3)c2)OC(CO)C(OC2OC(CO)C(O)C(OC3OC(CO)C(O)C(O)C3O)C2O)C1O (stereo not drawn) [Example 18],6.7
6,"CC(=O)N[C@H]1[C@H](OCCCNC(=O)COc2cccc(CNC(=O)CCCCC(=O)NCCNC(=O)CCCC[C@@H]3SC[C@@H]4NC(=O)N[C@@H]43)c2)O[C@H](CO)[C@@H](O[C@@H]2O[C@H](CO)[C@H](O)[C@H](O[C@H]3O[C@H](CO)[C@H](O)[C@H](O)[C@H]3O)[C@H]2O)[C@@H]1O [Example 12, N^1-(3-(2-((3-(((2R,3R,4R,5S,6R)-3-Acetamido-5-(((2S,3R,4S,5S,6R)-3,5-dihydroxy-6-(hydroxymethyl)-4-(((2R,3R,4S,5R,6R)-3,4,5-trihydroxy-6-(hydroxymethyl)tetrahydro-2H-pyran-2-yl)oxy)tetrahydro-2H-pyran-2-yl)oxy)-4-hydroxy-6-(hydroxymethyl)tetrahydro-2H-pyran-2-yl)oxy)propyl)amino)-2-oxoethoxy)benzyl)-N6-(2-(5-((3aS,4S,6aR)-2-oxohexahydro-1H-thieno[3,4-d]imidazol-4-yl)pentanamido)ethyl)adipamide]",37.3
7,CC(=O)N[C@H]1[C@H](OCCCNC(=O)CCOCCOCCOCCOCCNC(=O)COc2ccc(-c3cccc(C(=O)NCCNC(=O)CCOCCOCCOCCOCCOCCOCCOCCOCCOCCOCCOCCOCCNC(=O)CCCC[C@@H]4SC[C@@H]5NC(=O)N[C@@H]54)c3)cc2)O[C@H](CO)[C@@H](O[C@@H]2O[C@H](CO)[C@H](O)[C@H](O[C@H]3O[C@H](CO)[C@H](O)[C@H](O)[C@H]3O)[C@H]2O)[C@@H]1O [Example 52],34.9
8,CC(=O)N[C@H]1[C@H](OCCCNC(=O)CCOCCOCCOCCOCCOCCOCCOCCOCCOCCOCCOCCOCCNC(=O)COc2cccc(C(=O)NCCNC(=O)CCOCCOCCOCCOCCOCCOCCOCCOCCOCCOCCOCCOCCNC(=O)CCCC[C@@H]3SC[C@@H]4NC(=O)N[C@@H]43)c2)O[C@H](CO)[C@@H](O[C@@H]2O[C@H](CO)[C@H](O)[C@H](O[C@H]3O[C@H](CO)[C@H](O)[C@H](O)[C@H]3O)[C@H]2O)[C@@H]1O [Example 50],26.1
9,CC(=O)N[C@H]1[C@H](OCCCNC(=O)COc2cc(OCC(=O)NCCCO[C@@H]3O[C@H](CO)[C@@H](O[C@@H]4O[C@H](CO)[C@H](O)[C@H](O[C@H]5O[C@H](CO)[C@H](O)[C@H](O)[C@H]5O)[C@H]4O)[C@H](O)[C@H]3NC(C)=O)cc(-c3cc(OCC(=O)NCCCO[C@@H]4O[C@H](CO)[C@@H](O[C@@H]5O[C@H](CO)[C@H](O)[C@H](O[C@H]6O[C@H](CO)[C@H](O)[C@H](O)[C@H]6O)[C@H]5O)[C@H](O)[C@H]4NC(C)=O)cc(C(=O)NCCNC(=O)CCCC[C@@H]4SC[C@@H]5NC(=O)N[C@@H]54)c3)c2)O[C@H](CO)[C@@H](O[C@@H]2O[C@H](CO)[C@H](O)[C@H](O[C@H]3O[C@H](CO)[C@H](O)[C@H](O)[C@H]3O)[C@H]2O)[C@@H]1O [Example 1],8.2
10,CC(=O)NC1C(OCCCNC(=O)CCOCCOCCOCCOCCOCCOCCOCCOCCOCCOCCOCCOCCNC(=O)COc2ccc(-c3cc(OCC(=O)NCCOCCOCCOCCOCCOCCOCCOCCOCCOCCOCCOCCOCCC(=O)NCCCOC4OC(CO)C(OC5OC(CO)C(O)C(OC6OC(CO)C(O)C(O)C6O)C5O)C(O)C4NC(C)=O)cc(C(=O)NCCNC(=O)CCOCCOCCOCCOCCOCCOCCOCCOCCOCCOCCOCCOCCNC(=O)CCCCC4SCC5NC(=O)NC54)c3)cc2)OC(CO)C(OC2OC(CO)C(O)C(OC3OC(CO)C(O)C(O)C3O)C2O)C1O (stereo not drawn) [Example 48],25
11,"CC(=O)N[C@H]1[C@H](OCCCNC(=O)c2cccc(OCC(=O)NCCNC(=O)CCCC[C@@H]3SC[C@@H]4NC(=O)N[C@@H]43)c2)O[C@H](CO)[C@@H](O[C@@H]2O[C@H](CO)[C@H](O)[C@H](O[C@H]3O[C@H](CO)[C@H](O)[C@H](O)[C@H]3O)[C@H]2O)[C@@H]1O [Example 4, N-(3-(((2R,3R,4R,5S,6R)-3-Acetamido-5-(((2S,3R,4S,5S,6R)-3,5-dihydroxy-6-(hydroxymethyl)-4-(((2R,3R,4S,5R,6R)-3,4,5-trihydroxy-6-(hydroxymethyl)tetrahydro-2H-pyran-2-yl)oxy)tetrahydro-2H-pyran-2-yl)oxy)-4-hydroxy-6-(hydroxymethyl)tetrahydro-2H-pyran-2-yl)oxy)propyl)-3-(2-oxo-2-((2-(5-((3aS,4S,6aR)-2-oxohexahydro-1H-thieno[3,4-d]imidazol-4-yl)pentanamido)ethyl)amino)ethoxy)benzamide]",13.1
12,CC(=O)NC1C(OCCCNC(=O)CCOCCOCCOCCOCCNC(=O)COc2cc(OCC(=O)NCCOCCOCCOCCOCCC(=O)NCCCOC3OC(CO)C(OC4OC(CO)C(O)C(OC5OC(CO)C(O)C(O)C5O)C4O)C(O)C3NC(C)=O)cc(-c3cc(C(=O)NCCNC(=O)CCCCC4SCC5NC(=O)NC54)c(OCC(=O)NCCOCCOCCOCCOCCC(=O)NCCCOC4OC(CO)C(OC5OC(CO)C(O)C(OC6OC(CO)C(O)C(O)C6O)C5O)C(O)C4NC(C)=O)cc3OCC(=O)NCCOCCOCCOCCOCCC(=O)NCCCOC3OC(CO)C(OC4OC(CO)C(O)C(OC5OC(CO)C(O)C(O)C5O)C4O)C(O)C3NC(C)=O)c2)OC(CO)C(OC2OC(CO)C(O)C(OC3OC(CO)C(O)C(O)C3O)C2O)C1O (stereo not drawn) [Example 51],19.7
